Results on 17 compounds are retold here after ChEMBL document CHEMBL5038623, “Synthesis and bioactivities of new N-terminal dipeptide mimetics with aromatic amide moiety: Broad-spectrum antibacterial activity and high antineoplastic activity” (Eur J Med Chem, 2022).

The subject of data set [1] is Staphylococcus aureus. Put plainly: Antibacterial activity against Staphylococcus aureus ATCC 6538 assessed as reduction in microbial growth after 24 hrs by broth dilution method. Type of data set: functional. A general note: Dilution methods test growth across graded concentrations, often in twofold steps.
The subject of data set [2] is Staphylococcus aureus. The experiment in a line: Antibacterial activity against Staphylococcus aureus ATCC 6538 assessed as zone of inhibition incubated for 12 hrs by disc diffusion method. In kind it is functional.
Data set [3] relates to Escherichia coli. Put plainly: Antibacterial activity against Escherichia coli ATCC25922 assessed as zone of inhibition incubated for 12 hrs by disc diffusion method. Type of data set: functional, ATCC 25922.
Data set [4] has as its system Staphylococcus aureus. Put plainly: Antibacterial activity against methicillin-resistant Staphylococcus aureus ATCC 33591 assessed as MIC incubated for 12 hrs.
Another data set relates to Klebsiella pneumoniae. The experiment in a line: Antibacterial activity against Klebsiella pneumoniae ATCC 700603 assessed as reduction in microbial growth after 24 hrs by broth dilution method. Type of data set: functional.
Data set [5] deals with Escherichia coli. The experiment in a line: Antibacterial activity against Escherichia coli ATCC25922 assessed as reduction in microbial growth after 24 hrs by broth dilution method. Type of data set: functional. Conditions: ATCC 25922.
Data set [6] is described as follows: Selectivity index, HC50 for hemolytic activity in rabbit RBC to MIC for antibacterial activity against methicillin-resistant Staphylococcus aureus ATCC 33591. In kind it is toxicity. Conditions: rabbit red blood cells (RBC), read-out: Selectivity Index.
The nature of data set [7]: Hemolytic activity in rabbit RBC measured after 1 hrs by microplate reader assay. Type of data set: toxicity, cell-based, Oryctolagus cuniculus, Erythrocyte. Conditions: rabbit red blood cells (RBC).

The term MIC denotes the smallest concentration in the dilution series that meets the test's criterion for growth inhibition. By HC50 is commonly meant the concentration that lyses half of the red blood cells.

In brackets after ≈: the same amount, converted by molar mass.

Regarding `C#Cc1ccc(NC(=O)[C@@H](N)C(C)CC)cc1` (stereo partly drawn), the MIC with Staphylococcus aureus [1] is 39 µg/mL; in the data set on Staphylococcus aureus [4], 39 µg/mL (≈ 169 µM); in the data set with Klebsiella pneumoniae, 39 µg/mL; in the data set with Escherichia coli [5], 20 µg/mL. The “diameter of the inhibition zone (DIZ)” value worked out at 12 mm in the data set with Staphylococcus aureus [2] and 12.3 mm with Escherichia coli [3]. The selectivity ratio in data set [6] came to 20.8. In data set [7], this compound registered an HC50 at 1 h of 813 µg/mL.

For `CCCCCCNC(=O)[C@@H](N)C(C)C`, the MIC with Staphylococcus aureus [1] was 39 µg/mL; in the data set with Staphylococcus aureus [4], 78 µg/mL (≈ 389 µM); in the data set with Klebsiella pneumoniae, 78 µg/mL; with Escherichia coli [5], 20 µg/mL. Also, the results for the “diameter of the inhibition zone (DIZ)” value in the data set on Staphylococcus aureus [2] and in the data set on Escherichia coli [3] were 12 mm and 16.4 mm, respectively. Also, the selectivity ratio in data set [6] is 10. In data set [7], this compound returned an HC50 at 1 h of 392 µg/mL.

Consider `C#Cc1cccc(NC(=O)[C@H](N)C(C)C)c1`, for which the MIC in the data set on Staphylococcus aureus [1] amounted to 10 µg/mL; with Staphylococcus aureus [4] it was 20 µg/mL (≈ 92.5 µM); in the data set with Klebsiella pneumoniae, 20 µg/mL; in the data set with Escherichia coli [5], 39 µg/mL. Moreover, the “diameter of the inhibition zone (DIZ)” value in the data set with Staphylococcus aureus [2] amounted to 11.5 mm; in the data set on Escherichia coli [3], 10 mm. Also, the selectivity ratio in data set [6] is > 125. In addition, in data set [7], the HC50 at 1 h was > 1250 µg/mL.

`C#Cc1cccc(NC(=O)[C@@H](N)C(C)C)c1`: the minimum inhibitory concentration (MIC) in the data set with Staphylococcus aureus [1] turned out to be 10 µg/mL; with Staphylococcus aureus [4] it was 20 µg/mL (≈ 92.5 µM); with Klebsiella pneumoniae, 20 µg/mL; in the data set with Escherichia coli [5] it was 10 µg/mL. In addition, the “diameter of the inhibition zone (DIZ)” value is 15.7 mm in the data set on Staphylococcus aureus [2] and 15.4 mm with Escherichia coli [3]. Also, in data set [6], the selectivity ratio was 83.6. Further, the concentration for 50% haemolysis (HC50) at 1 h in data set [7] amounted to 836 µg/mL.

`CC(C)[C@H](N)C(=O)Nc1ccc(Cl)cc1`: the MIC with Staphylococcus aureus [1] was 78 µg/mL; in the data set with Staphylococcus aureus [4], 78 µg/mL (≈ 344 µM); with Klebsiella pneumoniae, 156 µg/mL; with Escherichia coli [5] it was 156 µg/mL. In addition, the figures for the “diameter of the inhibition zone (DIZ)” value with Staphylococcus aureus [2] and in the data set on Escherichia coli [3] were 10.9 mm and 10 mm, respectively. The selectivity ratio in data set [6] is > 16. In addition, in data set [7], the HC50 at 1 h was > 1250 µg/mL.

Take `C[C@H]1COc2c(N3CCN(C)CC3)c(F)cc3c(=O)c(C(=O)O)cn1c23.C[C@H]1COc2c(N3CCN(C)CC3)c(F)cc3c(=O)c(C(=O)O)cn1c23.O` [LEVOFLOXACIN]: the MIC is 1.25 µg/mL in the data set with Staphylococcus aureus [1], 1.25 µg/mL in the data set on Staphylococcus aureus [4], < 0.63 µg/mL in the data set with Klebsiella pneumoniae and 2.5 µg/mL in the data set on Escherichia coli [5].

As for `CC(C)[C@H](N)C(=O)Nc1ccccc1`, the MIC in the data set with Staphylococcus aureus [1], in the data set on Klebsiella pneumoniae and in the data set on Escherichia coli [5] was > 1250 µg/mL throughout.

Consider `Cc1ccc(NC(=O)[C@@H](N)C(C)C)cc1`, for which the MIC with Staphylococcus aureus [1], in the data set with Klebsiella pneumoniae and with Escherichia coli [5] was > 1250 µg/mL in each case.

On to `CN[C@H](CC(C)C)C(=O)N[C@H]1C(=O)N[C@@H](CC(N)=O)C(=O)N[C@H]2C(=O)N[C@H]3C(=O)N[C@H](C(=O)N[C@H](C(=O)O)c4cc(O)cc(O)c4-c4cc3ccc4O)[C@H](O)c3ccc(c(Cl)c3)Oc3cc2cc(c3O[C@@H]2O[C@H](CO)[C@@H](O)[C@H](O)[C@H]2O[C@H]2C[C@](C)(N)[C@H](O)[C@H](C)O2)Oc2ccc(cc2Cl)[C@H]1O` [VANCOMYCIN], for which the MIC in the data set on Staphylococcus aureus [1] was < 0.63 µg/mL; with Staphylococcus aureus [4], 1.25 µg/mL (≈ 0.863 µM); with Klebsiella pneumoniae it was 1250 µg/mL; in the data set on Escherichia coli [5] it was 156 µg/mL.

Turning to `CC(C)[C@H](N)C(=O)Nc1ccc(Br)cc1`, the minimum inhibitory concentration (MIC) worked out at 39 µg/mL in the data set with Staphylococcus aureus [1], 78 µg/mL (≈ 288 µM) with Staphylococcus aureus [4], 78 µg/mL in the data set on Klebsiella pneumoniae and 39 µg/mL in the data set with Escherichia coli [5]. Moreover, the “diameter of the inhibition zone (DIZ)” value in the data set with Staphylococcus aureus [2] and in the data set on Escherichia coli [3] was 11.8 mm in each case. Moreover, in data set [6], the selectivity ratio was > 32. Also, the HC50 at 1 h in data set [7] was > 1250 µg/mL.

For the compound `C#Cc1cccc(NC(=O)[C@@H](N)Cc2ccccc2)c1`, the minimum inhibitory concentration (MIC) in the data set with Staphylococcus aureus [1] was found to be 20 µg/mL; in the data set with Staphylococcus aureus [4], 20 µg/mL (≈ 75.7 µM); with Klebsiella pneumoniae, 39 µg/mL; with Escherichia coli [5], 39 µg/mL. The “diameter of the inhibition zone (DIZ)” value in the data set on Staphylococcus aureus [2] was determined as 10.2 mm; in the data set with Escherichia coli [3] it was 10 mm. Besides, the selectivity ratio in data set [6] is > 62.5. For the same compound, the HC50 at 1 h in data set [7] was > 1250 µg/mL.

Take `CC(C)C(NC(=O)[C@H](N)Cc1ccccc1)C(=O)O` (stereo partly drawn): the minimal inhibitory concentration (MIC) in the data set on Staphylococcus aureus [1], in the data set on Klebsiella pneumoniae and with Escherichia coli [5] was > 1250 µg/mL throughout. Further, the “diameter of the inhibition zone (DIZ)” value in the data set with Staphylococcus aureus [2] and with Escherichia coli [3] was <6 mm in each case.

`C#Cc1ccc(NC(=O)[C@@H](N)Cc2ccccc2)cc1`: the minimum inhibitory concentration (MIC) with Staphylococcus aureus [1] was 10 µg/mL; in the data set on Staphylococcus aureus [4], 10 µg/mL (≈ 37.8 µM); with Klebsiella pneumoniae, 39 µg/mL; in the data set with Escherichia coli [5], 39 µg/mL. Also, the “diameter of the inhibition zone (DIZ)” value in the data set with Staphylococcus aureus [2] came out at 13 mm; in the data set on Escherichia coli [3], 10 mm. Also, the selectivity ratio in data set [6] is > 125. In addition, in data set [7], the 50% haemolytic concentration (HC50) at 1 h is > 1250 µg/mL.

As for `CC(C)[C@H](N)C(=O)Nc1ccc(I)cc1`, the minimum inhibitory concentration (MIC) was 20 µg/mL with Staphylococcus aureus [1], 20 µg/mL (≈ 62.9 µM) in the data set on Staphylococcus aureus [4], 39 µg/mL in the data set with Klebsiella pneumoniae and 39 µg/mL with Escherichia coli [5]. Further, the “diameter of the inhibition zone (DIZ)” value with Staphylococcus aureus [2] came out at 17.6 mm. Moreover, in data set [6], the selectivity ratio came to 39.7. In data set [7], this compound returned an HC50 at 1 h of 794 µg/mL.

On to `C#Cc1ccc(NC(=O)[C@@H](N)Cc2c[nH]c3ccccc23)cc1`, for which the MIC in the data set on Staphylococcus aureus [1] amounted to 78 µg/mL; with Staphylococcus aureus [4], 78 µg/mL (≈ 257 µM); in the data set on Klebsiella pneumoniae, 156 µg/mL; with Escherichia coli [5], 156 µg/mL. Moreover, the “diameter of the inhibition zone (DIZ)” value in the data set on Staphylococcus aureus [2] is on record as 10 mm; with Escherichia coli [3] it was 6.5 mm. Further, the selectivity ratio in data set [6] is > 16. For the same compound, the HC50 at 1 h in data set [7] was > 1250 µg/mL.

Take `C#Cc1ccc(NC(=O)[C@@H](N)CC(C)C)cc1`: the minimal inhibitory concentration (MIC) was 5 µg/mL in the data set with Staphylococcus aureus [1], 10 µg/mL (≈ 43.4 µM) in the data set on Staphylococcus aureus [4], 10 µg/mL with Klebsiella pneumoniae and 10 µg/mL in the data set with Escherichia coli [5]. In addition, the entries for the “diameter of the inhibition zone (DIZ)” value with Staphylococcus aureus [2] and in the data set with Escherichia coli [3] were 17.7 mm and 14.5 mm, respectively. The selectivity ratio in data set [6] stood at 158. This compound displayed an HC50 at 1 h in data set [7] of 789 µg/mL.

With `CC(C)[C@H](N)C(=O)Nc1ccc(F)cc1`, the minimal inhibitory concentration (MIC) in the data set with Staphylococcus aureus [1], in the data set on Klebsiella pneumoniae and with Escherichia coli [5] was 312 µg/mL each time. Moreover, the “diameter of the inhibition zone (DIZ)” value in the data set on Staphylococcus aureus [2] and with Escherichia coli [3] was 6 mm throughout. Also, the selectivity ratio in data set [6] is > 4. Also, the HC50 at 1 h in data set [7] was > 1250 µg/mL.
